# Assay results from the SangsterLogP compilation.
# Experiment: method code SF, from DOI: 10.1021/jm101405t, PMID: 21319751
# Details: pH 7.4
row,logD,SMILES
1,3.41,OCCc1ccc(OCc2ccc(-c3ccccc3)cc2)cc1
2,3.25,OCCc1ccc(OCc2ccccc2-c2ccccc2)cc1
3,1.96,OCCc1ccc(OCc2ccccc2)cc1
4,3.32,OCCc1ccc(OCc2ccccc2Oc2ccccc2)cc1

# Second part, the compound before the results:
row,SMILES,logD
1,OCCc1ccc(OCc2cccc(-c3ccccc3)c2)cc1,3.37
2,OCCc1ccc(OCc2cccc(-c3nccs3)c2)cc1,2.11
3,OCCc1ccc(OCc2cccc(-c3cccs3)c2)cc1,3.22
4,OCCc1ccc(OCc2cccc(-c3ccccn3)c2)cc1,1.94
5,OCCc1ccc(-c2cccc(OCCc3ccccc3)c2)cc1,3.63
